Results published in patent US20250281433A1, “NOVEL DERIVATIVE COMPOUND HAVING BIPHENYL GROUP INTRODUCED INTO AMINO-ALKANOIC ACID AND ANTI-INFLAMMATORY COMPOSITION COMPRISING SAME” (AMTIXBIO CO., LTD., priority 2020, published 2025).

Key:
[1] = test system: IL-6 production in RAW264.7 cells; experiment: LPS-induced IL-6 production in RAW264.7 cells (ELISA); assay type: cell-based, mouse; settings: for Relative amount of IL-6 compared to LPS induction (%): Table 3, compounds at 8 μg/mL (FIG. 1), LPS alone = 100%; for avg / 1 well / 2 well / avg (%): Table 2; for avg / 1 well / 2 well: IL-6 production after LPS; for avg: average of wells; for 1 well: replicate well 1; for 2 well: replicate well 2; for avg (%): relative to LPS (100%)
Method: The inhibitory effect on induced IL-6 cytokine production was analyzed. RAW264.7 cells (obtained from the Korean Cell Line Bank) were seeded at a density of 5×10^5 cells/well in a 12-well plate and stabilized in a CO2 incubator at 37° C. with 5% carbon dioxide and saturated humidity. After 24 hours of incubation, the compounds of the present invention were prepared in DMEM at concentrations of 0 μg/mL or 8 μg/mL and pre-treated for 30 minutes. Next, lipopolysaccharide (LPS, Sigma-Aldrich, Cat No. L2887) was treated to a concentration of 1 μg/mL to induce an inflammatory response for 24 hours. Subsequently, mouse IL-6 ELISA kit (Labiskoma, Cat No. K0331230P) and mouse TNF-α ELISA kit (Labiskoma, Cat No. K0331186P) were used according to the manufacturer's instructions, and absorbance was measured. FK506 (FK-506 monohydrate, manufacturer: MilliporeSigma, product number: F4679, U.S.A) was used as a control substance.
After inducing inflammation as described in (1) and (2) above, the supernatant was collected, and the quantification of IL-6 in the supernatant was performed using the IL-6 ELISA kit (Mouse IL-6 ELISA Kit, pink-ONE, manufactured by Komabiotech, Product No. K0331230P) according to the manufacturer's instructions. Specifically, the amount of IL-6 in the supernatant was quantified according to the ELISA kit protocol, and the absorbance was measured at OD 450 nm using a microplate reader (Multiskan Sky, manufactured by Thermo Fisher Scientific). […] In Table 1 to Table 3, FIG. 1, and FIG. 2, the relative values of IL-6 generated after pretreatment with the compounds of the present invention were expressed as a percentage relative to the IL-6 production (100%) induced by LPS, TNF-α, or IFN-β treatment.

[2] = test system: psoriasis symptoms induced by Aldara cream in BALB/c mice; experiment: Aldara cream-induced mouse psoriasis model: evaluation of scratching; assay type: in vivo; settings: 8th day; topical; Compound 51 1%, Betamethasone 0.05%; versus Veh
Method: (§1) After dissolving the test substance (Compound 51 of the present invention) using DMSO (Dimethyl sulfoxide, Sigma, Cat No. 472301), an appropriate concentration was prepared with PBS (HyClone, Cat No. SH30028.02). The transdermal test substance was prepared by dissolving the test substance in 100% ethanol (Medchem, Cat No. HY-13571). Betamethasone dipropionate (Sigma, Cat No. D1756, Lot No. BCBW7684), a positive control, was dissolved in DMSO, and PEG400 (Sigma, Cat. No. 06855) and 30% ethanol (Daejung, Cat. No. 4023-4100) were added to the mixture obtained above. The same vehicle was used for the negative control in the same way as the positive control specimen preparation.
(§2) BALB/c mice (purchased through JA BIO, 27 males, 8 weeks old) were acclimatized for one week. After the mice were anesthetized with isoflurane 3 days before the application of Aldara cream, the hair on the back (3×3 cm) was removed using a clipper. The remaining hair was completely removed by leaving the hair removal cream for 1 minute. The mice were left for 72 hours to heal the wounds. To induce psoriasis, Aldera Cream (5% Imiquimod, Dong-A ST) 62.5 mg was applied at the same time point (AM 10:00) once/day 7 times, and 150 μl of test substance or positive control was applied from the 4th day at the same time point (PM 14:00) for 4 days. […]

[3] = test system: psoriasis-related cytokine genes IL-17A, IL-17F, IL-23A (p19), IL-12A (p35), IL-12B (p40), IL-1β; experiment: Aldara cream-induced mouse psoriasis model: qRT-PCR of dorsal skin; assay type: in vivo; settings: dorsal skin RNA, normalized to 18s rRNA; topical; Compound 51 1%, Betamethasone 0.05%; versus Veh
Method: as §1, §2

[4] = test system: psoriasis symptoms induced by Aldara cream in BALB/c mice; experiment: Aldara cream-induced mouse psoriasis model: skin lesions / PASI score; assay type: in vivo; settings: topical 150 μl for 4 days from 4th day, Compound 51 1%, Betamethasone 0.05%, versus Veh; for skin lesions (pictures, visual): 8th day; for PASI Score: p<0.001
Method: as §1
BALB/c mice (purchased through JA BIO, 27 males, 8 weeks old) were acclimatized for one week. After the mice were anesthetized with isoflurane 3 days before the application of Aldara cream, the hair on the back (3×3 cm) was removed using a clipper. The remaining hair was completely removed by leaving the hair removal cream for 1 minute. The mice were left for 72 hours to heal the wounds. To induce psoriasis, Aldera Cream (5% Imiquimod, Dong-A ST) 62.5 mg was applied at the same time point (AM 10:00) once/day 7 times, and 150 μl of test substance or positive control was applied from the 4th day at the same time point (PM 14:00) for 4 days. The composition of each test group was as follows. a) Con: Normal+excipient application group: 8 animals; b) Veh: Aldara cream+excipient application group: 8 animals; c) Beta: Aldara+Betamethasone 0.05% applied group: 8 animals; and d) Compound 51 1%: Aldara+Compound 51 1% application group: 3 animals. The autopsy proceeded in a non-fasting state, and the dorsal skin was removed from each mouse, rapidly frozen in liquid nitrogen, and stored at −80° C. before for the subsequent experiments.
After taking pictures on the 0th, 4th, and 8th days to measure the skin index values, they were visually observed and recorded to measure the degree of skin lesions on the dorsal area. The condition of psoriasis skin lesions in each group was scored according to the evaluation index (erythema, skin thickness, dead skin cells) as None (0), Weak (1), Moderate (2), Severe (3), Very Severe (4) and set the score, and by summing up the scores of the three items, an evaluation score between a minimum of 0 and a maximum of 12 was calculated. […] After taking pictures in all groups on the 0th, 4th and 8th days, the evaluation indexes (erythema, skin thickness, and dead skin cells) of the psoriasis skin lesions in each group were graphed.

## CCCC(N)C(=O)Nc1ccc(-c2ccc(OC(F)(F)F)cc2)cc1.Cl (racemic) [Compound 32, (R)/(S)-2-amino-N-(4′-(trifluoromethoxy)-[1,1′-biphenyl]-4-yl)pentanamide hydrochloride]
[1]; LPS 1 μg/mL 24 h
  Relative amount of IL-6 compared to LPS induction (%): 16%

## CCCC(C(=O)Nc1ccc(-c2ccc(Cl)c(Cl)c2)cc1)N(C)C (racemic) [Compound 36, (R)/(S)—N-(3′,4′-dichloro-[1,1′-biphenyl]-4-yl)-2-(dimethylamino)pentanamide]
[1]; LPS 1 μg/mL 24 h
  Relative amount of IL-6 compared to LPS induction (%): 9%

## CCCC(N)C(=O)NCc1ccc(-c2ccc(Cl)c(Cl)c2)cc1.Cl (racemic) [Compound 45, (R)/(S)-2-amino-N-((3′,4′-dichloro-[1,1′-biphenyl]-4-yl)methyl)pentanamide hydrochloride]
[1]; LPS 1 μg/mL 24 h
  Relative amount of IL-6 compared to LPS induction (%): 3%

## CCCC(N)C(=O)NCc1ccc(-c2ccc(C(F)(F)F)cc2)cc1.Cl (racemic) [Compound 47, (R)/(S)-2-amino-N-((4′-(trifluoromethyl)-[1,1′-biphenyl]-4-yl)methyl)pentanamide hydrochloride]
[1]; LPS 1 μg/mL 24 h
  Relative amount of IL-6 compared to LPS induction (%): 12%

## CCCCC(N)C(=O)NCc1ccc(-c2ccc(C(F)(F)F)cc2)cc1.Cl (racemic) [Compound 48, (R)/(S)-2-amino-N-((4′-(trifluoromethyl)-[1,1′-biphenyl]-4-yl)methyl)hexanamide hydrochloride]
[1]; LPS 1 μg/mL 24 h
  Relative amount of IL-6 compared to LPS induction (%): 67%

## CCCC(N)C(=O)NCc1ccc(-c2ccc(OC(F)(F)F)cc2)cc1.Cl (racemic) [Compound 49, (R)/(S)-2-amino-N-((4′-(trifluoromethoxy)-[1,1′-biphenyl]-4-yl)methyl)pentanamide hydrochloride]
[1]; LPS 1 μg/mL 24 h
  Relative amount of IL-6 compared to LPS induction (%): 50%

## CCCCC(N)C(=O)NCc1ccc(-c2ccc(OC(F)(F)F)cc2)cc1.Cl (racemic) [Compound 50, (R)/(S)-2-amino-N-((4′-(trifluoromethoxy)-[1,1′-biphenyl]-4-yl)methyl)hexanamide hydrochloride]
[1]; LPS 1 μg/mL 24 h
  Relative amount of IL-6 compared to LPS induction (%): 68%

## CCCC(NC)C(=O)NCc1ccc(-c2ccc(Cl)c(Cl)c2)cc1.Cl (racemic) [Compound 51, (R)/(S)—N-((3′,4′-dichloro-[1,1′-biphenyl]-4-yl)methyl)-2-(methylamino)pentanamide hydrochloride]
[2]
  pruritus (scratching counts, 30 minutes): tendency to decrease pruritus
[1]; compound at 2 μg/ml
  avg: 2615.50
  1 well: 2815.00
  2 well: 2416.00
  avg (%): 56.11%
[1]; compound at 4 μg/ml
  avg: 586.95
  1 well: 669.30
  2 well: 504.60
  avg (%): 12.59%
[3]
  psoriasis-related cytokine genes (IL-17A, IL-17F, IL-23A (p19), IL-12A (p35), IL-12B (p40), IL-1β) expression: significantly reduced
[4]
  skin lesions (pictures, visual): visually improved
  PASI Score: significantly decreased

## CCCC(NC)C(=O)NCc1ccc(-c2ccc(C(F)(F)F)cc2)cc1.Cl (racemic) [Compound 52, (R)/(S)-2-(methylamino)-N-((4′-(trifluoromethyl)-[1,1′-biphenyl]-4-yl)methyl)pentanamide hydrochloride]
[1]; LPS 1 μg/mL 24 h
  Relative amount of IL-6 compared to LPS induction (%): 13%

## CCCC(C(=O)NCc1ccc(-c2ccc(Cl)c(Cl)c2)cc1)N(C)C (racemic) [Compound 53, (R)/(S)—N-((3′,4′-dichloro-[1,1′-biphenyl]-4-yl)methyl)-2-(dimethylamino)pentanamide]
[1]; LPS 1 μg/mL 24 h
  Relative amount of IL-6 compared to LPS induction (%): 5%

## CCC(N)C(=O)NCCc1ccc(-c2ccc(C(F)(F)F)cc2)cc1.Cl (racemic) [Compound 76, (R)/(S)-2-amino-N-(2-(4′-(trifluoromethyl)-[1,1′-biphenyl]-4-yl)ethyl)butanamide hydrochloride]
[1]; LPS 1 μg/mL 24 h
  Relative amount of IL-6 compared to LPS induction (%): 9.58%

## CCCC(N)C(=O)NCCc1ccc(-c2ccc(OC(F)(F)F)cc2)cc1.Cl (racemic) [Compound 80, (R)/(S)-2-amino-N-(2-(4′-(trifluoromethoxy)-[1,1′-biphenyl]-4-yl)ethyl)pentanamide hydrochloride]
[1]; LPS 1 μg/mL 24 h
  Relative amount of IL-6 compared to LPS induction (%): 6%

## CCCC(N)C(=O)NCCc1ccc(-c2ccc(F)c(F)c2)cc1.Cl (racemic) [Compound 82, (R)/(S)-2-amino-N-(2-(3′,4′-difluoro-[1,1′-biphenyl]-4-yl)ethyl)pentanamide hydrochloride]
[1]; LPS 1 μg/mL 24 h
  Relative amount of IL-6 compared to LPS induction (%): 3%

## CCC(NC)C(=O)NCCc1ccc(-c2ccc(Cl)c(Cl)c2)cc1.Cl (racemic) [Compound 83, (R)/(S)—N-(2-(3′,4′-dichloro-[1,1′-biphenyl]-4-yl)ethyl)-2-(methylamino)butanamide hydrochloride]
[1]; LPS 1 μg/mL 24 h
  Relative amount of IL-6 compared to LPS induction (%): 9%

## CCCC(NC)C(=O)NCCc1ccc(-c2ccc(C(F)(F)F)cc2)cc1.Cl (racemic) [Compound 87, (R)/(S)-2-(methylamino)-N-(2-(4′-(trifluoromethyl)-[1,1′-biphenyl]-4-yl)ethyl)pentanamide hydrochloride]
[1]; LPS 1 μg/mL 24 h
  Relative amount of IL-6 compared to LPS induction (%): 24%

## CCC(=O)OCC(=O)[C@@]1(OC(=O)CC)[C@@H](C)C[C@H]2[C@@H]3CCC4=CC(=O)C=C[C@]4(C)[C@@]3(F)[C@@H](O)C[C@@]21C [Beta, Betamethasone dipropionate, reference compound]
[2]
  pruritus (scratching counts, 30 minutes): significant decrease
[3]
  psoriasis-related cytokine genes (IL-17A, IL-17F, IL-23A (p19), IL-12A (p35), IL-12B (p40), IL-1β) expression: significantly reduced
[4]
  skin lesions (pictures, visual): visually improved
  PASI Score: significantly decreased

## C=CC[C@@H]1/C=C(\C)C[C@H](C)C[C@H](OC)[C@H]2O[C@@](O)(C(=O)C(=O)N3CCCC[C@H]3C(=O)O[C@H](/C(C)=C/[C@@H]3CC[C@@H](O)[C@H](OC)C3)[C@H](C)[C@@H](O)CC1=O)[C@H](C)C[C@@H]2OC [FK506, FK-506 monohydrate, reference compound]
[1]; Table 1, LPS 1 μg/mL 24 h, compound 77 at 8 μg/ml, FK506 concentration not given
  IL-6: 656.86 pg/mL
[1]; Table 1, relative to IL-6 production induced by LPS (100%), compound 77 at 8 μg/ml, FK506 concentration not given
  IL-6 (%): 45.31%
